This note sets out measurements from patent US5770563A, “Heparin- and sulfatide binding peptides from the type I repeats of human thrombospondin and conjugates thereof” (The United States of America as represented by the …, priority 1995, dated 1998).

Data set [1] deals with laminin binding to sulfatide. Description: Inhibition of 125I-laminin binding to sulfatide. On the set-up: species or system mouse. The following applies: Table 2, free peptide. The method, then:
(§1) The peptides were tested as inhibitors of laminin, thrombospondin or apolipoprotein E binding to a heparin-bovine serum albumen conjugate or to a sulfatide in a solid phase assay essentially following the procedure described in Zabrenetzky et al., Cancer Res., Vol. 50, pages 5937-5942 (1990). Sulfatide (0.2 μg/well for thrombospondin binding, 0.6 μg/well for laminin binding) was immobilized in a mixture of 50 ng of phosphatidyl choline, and 30 ng of cholesterol on polyvinyl chloride microtiter plates. Heparin-BSA (0.2 μg/well) was absorbed onto polyvinyl chloride microtiter plate wells by incubation of 50 μl of Dulbecco's PBS for 2 h at 37°. The wells were emptied and filled with 50 mM tris, pH 7.8 containing 150 mM NaCl, 1 mM CaCl2, 0.025% NaN3, and 1% BSA. After 30 minutes, the wells were emptied and 30 μl of various concentrations of potential inhibitory peptides diluted in the same buffer or buffer alone and 30 μl of ^125 I-labeled laminin, thrombospondin or apolipoprotein E (0.2 μg/ml) were added to each well. After 3 hours at 4°, the wells were washed 6 times with 0.15M NaCl, cut from the plate and the bound radioactivity counted. FIGS. 1A-B and 2A-B show the level of thrombospondin binding to sulfatide and heparin-BSA, respectively, in the presence of increasing concetrations of the peptides listed. FIGS. 3 and 4A-B show the level of laminin binding to sulfatide and heparin-BSA, respectively, in the presence of increasing concentrations of the listed peptides.

Data set [2] concerns the target thrombospondin binding to heparin. Description: Inhibition of 125I-thrombospondin binding to immobilized heparin-BSA. Details: species or system human. Particulars: for inhibition of thrombospondin binding to heparin, in words: free peptide. As for the experimental part: as §1
Microtiter plate wells were coated with heparin-BSA. Heparin-BSA (0.2 μg/well) was adsorbed by incubation in 50 μl of Dulbecco's PBS for 2 h at 370. The wells were emptied, filled with tris-BSA, and incubated for 30 to 60 minutes. The buffer was removed, and labelled thrombospondin was added and incubated in the wells for 3 h at 40. The wells were emptied and washed 4 times with saline. The bottoms of the wells were cut from the plate and counted to quantify thrombospondin binding. Inhibition of thrombospondin binding was determined using peptides diluted in 30 μl of 50 mM tris buffer, pH 7.8, containing 110 mM NaCl, 1 mM CaCl2, 0.025% NaN3, and 1% BSA or buffer alone and 30 μl of ^125 I-labeled TSP (0.2 μg/ml).

Data set [3] concerns A2058 melanoma cells. Description: 125I-thrombospondin binding to A2058 melanoma cells. It is filed as cell-based, human. As for the experimental part:
(§2) Melanoma cells (1×10^5 in 0.2 ml) were incubated with 0.2 μg/ml labeled laminin alone or in the presence of 200 micrograms per ml of peptides from SEQ ID NO:1, SEQ ID NO:2, or SEQ ID NO:3, type-I repeats from thrombospondin (FIG. 5A). Melanoma cells were also incubated with labelled laminin or thrombospondin alone or in the presence of 10 μg/ml of peptides from the first (184, SEQ ID NO:1), second (185, SEQ ID NO:2 and 246, SEQ ID NO:19), or third type I repeat of thrombospondin (186, SEQ ID NO:3) or 1 μg/ml heparin (FIG. 5B). The cells were centrifuged through oil to separate the free laminin from the bound laminin followed by quantifying the radioactivity in the cell pellet by a gamma counter. The results are presented in FIGS. 5A and B, as a percent of control binding determined in the absence of peptide and is the mean of triplicate determinations±the standard deviation.
(§3) Melanoma cells (3×10^5 cells in 0.2 ml) were incubated with 0.2 μg/ml of labelled I^125 -thrombospondin alone or in the presence of increasing concentrations of heparin or a peptide having the sequence according to SEQ ID NO:1 or a combination of the two inhibitors. […]
(§4) A2058 melanoma cells were harvested as described above and suspended in Dulbecco's PBS containing 1 mg/ml BSA. […] The supernatant fluid was aspirated, and the bottom of the tube was cut and counted.

The target in data set [4] is laminin binding to heparin. Description: Inhibition of 125I-laminin binding to heparin-BSA. The following applies: Table 2, free peptide. On the set-up: species or system mouse. The method, then: as §1
In data set [5] the target is thrombospondin binding to sulfatide. Description: Inhibition of 125I-thrombospondin binding to sulfatide. Details: species or system human. Particulars: Table 1, free peptide. As for the experimental part: as §1
Data set [6] deals with apolipoprotein E binding to heparin. Description: Inhibition of 125I-apolipoprotein E binding to heparin-BSA. The following applies: Table 2, free peptide; read-out: IC50 Apo E Binding to Heparin. The method, then:
as §1

The test system of data set [7] is A2058 melanoma cells. Description: A2058 melanoma cell adhesion to peptides adsorbed on plastic. It is filed as cell-based, human. As for the experimental part: Human melanoma cell line A2058 (Todaro et al., Proc. Natl. Acad. Sci USA 77, 5258-5262 (1980)) was maintained by monolayer culture at 37° with 5% carbon dioxide in RPMI 1640 medium containing 10% fetal bovine serum. For attachment assays, cells were removed using trypsin, passaged at 10^4 cells/cm^2 and harvested between days 5 and 7. Attachment and spreading on thrombospondin-coated plastic was determined as previously described (Roberts et al., J. Cell Biol. 104, 131-139 (1987)). Inhibition was determined by adding the inhibitor diluted in 0.4 ml of bicarbonate-free RPMI 1640 medium, containing 1 mg/ml of bovine serum albumin (fatty acid free, Sigma), pH 7.3, to wells of a 24-well dish containing bacteriological polystyrene was coated with the indicated peptides at 200 μg/ml. Melanoma cells were harvested by incubation with phosphate buffered saline containing 2.5 mM EDTA for 20 minutes at 37°. The cells were centrifuged and viability (routinely >99%) was assessed by trypan blue exclusion. The cells were resuspended in medium and allowed to recover in suspension for 1 h. Melanoma cells (2×10^5 ) suspended in 100 μl of medium (approx 10^3 /mm^2) were added to each well and allowed to attach for 60 minutes at 37° C. in a humidified atmosphere.

The subject of data set [8] is bovine endothelial cells. Description: Inhibition of bovine endothelial cell proliferation (Table 7). Particulars: free peptide; read-out: IC50 Inhibitory Activity, Free Peptide. It is filed as cell-based. The method, then:
Similar structure-function and epitope mapping studies were carried out with regard to inhibition of bovine endothelial cell proliferation. […] This may be due either to a lower tendency of the conjugates to stick to the microtiter wells or a greater tendency to disrupt binding of the cells to the substratum in the wells.
Endothelial cell proliferation was measured using the CELL TITER 96™ assay (Promega, Madison, Wis.). 5×10^3 cells were plated into each well of a 96-well culture plate in 0.5 or 5% FCS-containing medium together with the indicated concentrations of growth effectors. After 72 h, 15 μl of dye solution was added to each well, and the plates were incubated for an additional 4 h. Solubilization solution was added, and absorbance at 570 nm was determined after 24 h as described by the manufacturer.

The target of data set [9] is basic fibroblast growth factor (FGF-2) binding to heparin. Description: Inhibition of 125I-bFGF binding to heparin-BSA conjugate. The following applies: retro-inverso peptides; read-out: IC50 for Inhibition of Binding. As for the experimental part: Binding of ^125 I-bFGF to heparin was determined using an immobilized heparin-BSA conjugate as previously described (Guo, et al. (1992) Proc. Nat'l Acad. Sci. 89:3040-3044). ^125 I-bFGF, prepared as described by Neufeld, et al, (1985), J. Biol. Chem. 260:13860-13868, was added described above, and incubated for 2 hours at 25° C. Bound radioactivity was determined after washing and cutting the wells from the plate. FIGS. 40A, B and C show the inhibition of ^125 I-bFGF binding to heparin by a number of TSP peptide analogs.

Data set [10] has as its system MDA MB435 breast carcinoma cells. Description: MDA MB435 human breast carcinoma cell proliferation. It is filed as cell-based. Particulars: free peptide. As for the experimental part:
Human breast carcinoma cells MDA MB435 (American Type Culture Collection) were grown in RPMI 1640 medium containing 10% fetal calf serum. Proliferation was determined as described in FIG. 18 and 44A, B and C.
Human breast carcinoma cells MDA MB435 (American Type Culture Collection) were grown in RPMI 1640 medium containing 10% fetal calf serum. Proliferation was determined in the presence of 0.5% fetal calf serum and bFGF as described in FIG. 19.

Data set [11] is described as follows: Solubility. It is filed as physicochemical.
In data set [12] the test system is A2058 melanoma cells. Description: 125I-laminin binding to A2058 melanoma cells. It is filed as cell-based, human. Particulars: excess heparin. The method, then:
as §2, §3, §4

[13] abbreviates: Table 1, free peptide, read-out: IC50 Heparin Binding, inhibition of 125I-thrombospondin binding.
[14] abbreviates: retro-inverso peptides, free, read-out: IC50 Inhibitory Activity, Free Peptide.

Like-named read-outs stand apart in the source and are kept apart here. Square brackets hold non-standard residues; d marks the D form. Peptide text beside a SMILES is read from it. Mpa = O=C(O)CCS

Turning to `C[C@@H](O)[C@H](NC(=O)[C@H](CO)NC(=O)[C@H](CS)NC(=O)[C@H](CO)NC(=O)[C@@H](NC(=O)[C@H](Cc1c[nH]c2ccccc12)NC(=O)[C@H](CCC(=O)O)NC(=O)[C@H](CO)NC(=O)[C@H](Cc1c[nH]c2ccccc12)NC(=O)[C@@H]1CCCN1C(=O)[C@@H](N)CO)[C@@H](C)O)C(=O)N[C@@H](CO)C(=O)O` [Peptide 184, SPWSEWTSCSTS] (H-SPWSEWTSCSTS-OH), the IC50 was 42 µM in data set [1]; 47 µM in [2] (setting [13]); 36 µM in [4]; 14 µM in data set [5]; 4.2 µM in data set [6]. Also, the “inhibition of thrombospondin binding to A2058 melanoma cells, in words” value in [3] (dose dependent) is “inhibited”.

Turning to `CC(C)[C@H](NC(=O)[C@H](CO)NC(=O)[C@@H](N)CS)C(=O)N[C@H](C(=O)N[C@@H](CS)C(=O)NCC(=O)O)[C@@H](C)O` [Peptide 187, CSVTCG] (H-CSVTCG-OH), the half-maximal inhibitory concentration (IC50) in [1] worked out at 3.9 µM; in [2] (setting [13]), 6 µM; in data set [4] it was 3 µM; in [5], 14 µM; in [6], 84 µM. Moreover, in data set [7] (peptide adsorbed on plastic), the “promotion of melanoma cell adhesion, in words” value was “promoted significant cell adhesion above background”. For the same compound, the “inhibition of thrombospondin binding to heparin, in words” value in [2] is listed as “active”.

In the case of `C[C@@H](NC(=O)CCS)C(=O)N[C@H](C)C(=O)N[C@H](Cc1c[nH]c2ccccc12)C(=O)N[C@H](Cc1c[nH]cn1)C(=O)N[C@H](CO)C(=O)N[C@H](Cc1c[nH]c2ccccc12)C(=O)NCC(=O)NCC(=O)N[C@H](C)C(=O)N[C@H](CCC(N)=O)C(=O)N[C@H](CCCCN)C(=O)N[C@H](C)C(=O)N[C@H](CCCNC(=N)N)C(=O)N[C@H](CCCCN)C(N)=O` [Peptide 483, ri-amKRAKQAGGWSHWAAtp] ([Mpa][dA][dA][dW][dH][dS][dW]GG[dA][dQ][dK][dA][dR][dK]-NH2), the half-maximal inhibitory concentration (IC50) in data set [8] is 4 µM; in data set [9] it was above 20 µM; in [2] (setting [14]) it was 0.13 µM. In data set [10], the “inhibition of MDA MB435 proliferation, in words” value is recorded as “active”.

For the compound `CC(=O)N[C@H](CS)C(=O)N[C@H](CO)C(=O)N[C@H](CO)C(=O)N[C@H](C)C(=O)N1CCC[C@@H]1C(=O)N[C@H](CO)C(=O)N[C@H](C)C(=O)N[C@H](Cc1c[nH]cn1)C(=O)N[C@H](CO)C(=O)N[C@H](C)C(=O)NCC(=O)NCC(=O)N[C@H](CC(=O)O)C(=O)N[C@H](CCC(N)=O)C(=O)N[C@H](CCCCN)C(=O)N[C@H](C)C(=O)N[C@H](CCCNC(=N)N)C(=O)N[C@H](CCCCN)C(N)=O` [Peptide 513, ri-amKRAKQDGGASHASPASSCac] (Ac-[dC][dS][dS][dA][dP][dS][dA][dH][dS][dA]GG[dD][dQ][dK][dA][dR][dK]-NH2), the 50% inhibitory concentration (IC50) in data set [8] stood at 18 µM; in data set [9] it was 18 µM; in [2] (setting [14]), 6.2 µM.

For `CC(=O)N[C@@H](CCCCN)C(=O)N[C@@H](CCCNC(=N)N)C(=O)N[C@@H](C)C(=O)N[C@@H](CCCCN)C(=O)N[C@@H](C)C(=O)N[C@@H](C)C(=O)NCC(=O)NCC(=O)N[C@@H](Cc1c[nH]c2ccccc12)C(=O)N[C@@H](CO)C(=O)N[C@@H](Cc1c[nH]cn1)C(=O)N[C@@H](Cc1c[nH]c2ccccc12)C(=O)N[C@@H](C)C(=O)N[C@@H](CO)C(=O)N[C@@H](CS)C(N)=O` [acKRAKAAGGWSHWASCam] (Ac-KRAKAAGGWSHWASC-NH2), the solubility characteristics entry in [11] is “good activity and solubility characteristics”. Moreover, in data set [2], the “inhibition of thrombospondin binding to heparin, in words” value was “good activity”.

In the case of “apolipoprotein E: recombinant apolipoprotein E, heparin-binding protein”, the “inhibition of A2058 adhesion to the peptides” value in data set [7] (disks coated with 200 μg/ml peptide 185) is “inhibited adhesion”.

With heparin [reference compound], the “inhibition of thrombospondin binding to A2058 melanoma cells by heparin” value in data set [3] (heparin) was “approximately 90%”. Also, the “laminin binding resistant to inhibition” value in data set [12] was “approximately 50%”.
